In patent publication US20080113926A1, “9A-Carbamoyl-Y-Aminopropyl- And 9A-Thiocabamoyl-Y-Aminopropyl-Azalides With Antimalarial Activity” (priority 2005, published 2008):
≈ marks a conversion by molar mass, not a printed value.

Tests used:
[1] = tested on: Plasmodium falciparum TM91C235; test: In vitro antimalarial [3H]-hypoxanthine incorporation serial dilution assay, TM91C235; type: cell-based; details: Plasmodium falciparum; P. falciparum TM91C235, parasites exposed for 72 hours
[2] = tested on: Plasmodium falciparum clone CDC/Sierra Leone I (D-6); test: In vitro antimalarial [3H]-hypoxanthine incorporation serial dilution assay, D6; type: cell-based; details: Plasmodium falciparum; P. falciparum D6, parasites exposed for 72 hours
Description: (§1) The in vitro screens for intrinsic antimalarial activity were based on modifications of the procedures described by Desjardins R E, Canfield C J, Haynes J D, Chulay J D. (Quantitative assessment of antimalarial activity in vitro by a semiautomated microdilution technique. Antimicrob Agents Chemother. 1979 December; 16(6):710-8), Chulay J D, Haynes J D, Diggs C L. (Plasmodium falciparum: Assessment of in vitro growth by [3H]hypoxanthine incorporation. Exp. Parasitol. 1983 55:138-146), and Milhous W K, Weatherly N F, Bowdre J H, Desjardins R E. (In vitro activities of and mechanisms of resistance to antifol antimalarial drugs. Antimicrob Agents Chemother. 1985 April; 27(4):525-30). The system was limited to the assessment of the intrinsic activity against the erythrocytic asexual life cycle (blood schizontocides). Two Plasmodium falciparum clones from CDC/Indochina III (W-2) and CDC/Sierra Leone I (D-6) (Oduola A M, Weatherly N F, Bowdre J H, Desjardins R E. Plasmodium falciparum: cloning by single-erythrocyte micromanipulation and heterogeneity in vitro. Exp Parasitol. 1988 66(1):86-95) were used for all assays. TM91C235, a multiple drug resistant isolate from Thailand, was used for the prescreening assay. W-2 is resistant to chloroquine, quinine, and pyrimethamine and susceptible to mefloquine. D-6 tends to be more resistant to mefloquine and susceptible to chloroquine, quinine, and pyrimethamine. All documents cited in this paragraph are incorporated by reference in their entirety.
(§2) All parasites were maintained in continuous long term cultures in RPMI-1640 medium supplemented with 6% washed human A positive (A+) (erythrocytes, 25 mM Hepes, […], and 10% heat inactivated A+ human plasma or ALBUMAX® (lipid-rich bovine serum albumin; Invitrogen, Carlsbad, Calif.). All cultures and assays were conducted at 37° C. under an atmosphere of 5% CO2 and 5% O2, with a balance of N2.
(§3) The prescreening assay uses TM91C235 diluted at a 0.4% parasitemia in a 1% hematocrit in folic acid free and p-aminobenzoic acid free media RPMI-1640 and ALBUMAX®. One mg of the compound is typically dissolved in 100 μl of dimethyl sulfoxide (DMSO). The compound is further diluted in culture medium (FF) with ALBUMAX® for the first initial starting concentration. The rest of the stock drug solution was kept at −70° C. The isolate was preexposed, in duplicate, at three concentrations (25,000 ng/ml, 2,500 ng/ml, and 25 ng/ml) of the test compound for 48 hr in a 96-well microtiter plate (MTP) using the BIOMEK® 2000 automated laboratory workstation. Each MTP contains chloroquine as control to assess the relative activity of the compound and to monitor the response of TM91C235.
(§4) After the preincubation, [^3H]-hypoxanthine was added to each well of the MTP. (The assay relies on the incorporation of radiolabeled hypoxanthine by the parasites, which indicates reproduction, and inhibition of isotope incorporation was attributed to activity of known or candidate antimalarial drugs). After 72 hr of total incubation time, the MTP were frozen to lyse the erythrocytes and parasites. The parasite DNA was recovered by harvesting the lysate onto glass-fiber filter plates using a Packard FilterMate™ Cell Harvester. The radioactivity was counted on a Packard TopCount™ microplate scintillation counter. The results were recorded as counts per minutes (CPM) per well at each drug concentration divided by the arithmetic mean of the CPM from the three untreated infection parasite control wells.
(§5) The serial dilution assay was conducted using the same assay conditions and stock solution of the compound used for the preliminary screen, described above. Both the D-6 and the W-2 clones were used. The compounds were diluted two-fold over 11 different concentration ranges with a starting concentration that was based on the preliminary screen. […]

Plasmodium cynomolgi = details: rhesus monkey; cited from earlier work
Plasmodium falciparum = details: non-immune patients, as compared to controls; cited from earlier work
Plasmodium vivax = details: non-immune patients, as compared to controls; cited from earlier work
[3] = tested on: Plasmodium falciparum clone CDC/Indochina III (W-2); test: In vitro antimalarial [3H]-hypoxanthine incorporation serial dilution assay, W2; type: cell-based; details: Plasmodium falciparum, W2, 72 h, P. falciparum W2, parasites exposed for 72 hours
Description: as §1, §2, §3, §4, §5

Plasmodium berghei = details: cited from earlier work
[4] = tested on: Plasmodium yoelii nigeriensis; details: cited from earlier work

Row | Molecule | IC50 [1] [mg/L] | IC50 [2] [mg/L] | efficacy in monkey model (Plasmodium cynomolgi) | prophylactic efficacy for Plasmodium falciparum (Plasmodium falciparum) [%] | prophylactic efficacy for Plasmodium vivax (Plasmodium vivax) [%] | IC50 [3] [mg/L] | activity in mouse model, Plasmodium berghei (Plasmodium berghei) | activity in mouse model, Plasmodium yoelii nigeriensis [4]
1 | CC[C@H]1OC(=O)[C@H](C)[C@@H](O[C@H]2C[C@@](C)(OC)[C@@H](O)[C@H](C)O2)[C@H](C)[C@@H](O[C@@H]2O[C@H](C)C[C@H](N(C)C)[C@H]2O)[C@](C)(O)C[C@@H](C)CN(C)[C@H](C)[C@@H](O)[C@]1(C)O [azithromycin, reference compound] | 1.62 (≈ 2.16 µM) | 0.797 (≈ 1.06 µM) | active | 71.6 | 98.9 | 1.76 (≈ 2.35 µM) | – | –
2 | CC[C@H]1OC(=O)[C@H](C)[C@@H](O[C@H]2C[C@@](C)(OC)[C@@H](O)[C@H](C)O2)[C@H](C)[C@@H](O[C@@H]2O[C@H](C)C[C@H](N(C)C)[C@H]2O)[C@](C)(O)C[C@@H](C)CN(CCCN(CCC#N)C(=O)Nc2ccccc2C(F)(F)F)[C@H](C)[C@@H](O)[C@]1(C)O [Compound 23] | 0.153 (≈ 0.148 µM) | 0.535 (≈ 0.518 µM) | – | – | – | 0.0626 (≈ 0.0606 µM) | – | –
3 | CC[C@H]1OC(=O)[C@H](C)[C@@H](O[C@H]2C[C@@](C)(OC)[C@@H](O)[C@H](C)O2)[C@H](C)[C@@H](O[C@@H]2O[C@H](C)C[C@H](N(C)C)[C@H]2O)[C@](C)(O)C[C@@H](C)CN(CCCNC(=O)Nc2ccccc2C(F)(F)F)[C@H](C)[C@@H](O)[C@]1(C)O [Compound 2] | 0.23 (≈ 0.234 µM) | 0.311 (≈ 0.318 µM) | – | – | – | 0.36 (≈ 0.368 µM) | – | –
4 | CC[C@H]1OC(=O)[C@H](C)[C@@H](O[C@H]2C[C@@](C)(OC)[C@@H](O)[C@H](C)O2)[C@H](C)[C@@H](O[C@@H]2O[C@H](C)C[C@H](N(C)C)[C@H]2O)[C@](C)(O)C[C@@H](C)CN(CCCNC(=O)NCc2ccccc2)[C@H](C)[C@@H](O)[C@]1(C)O [Compound 17] | 0.278 (≈ 0.3 µM) | 0.566 (≈ 0.612 µM) | – | – | – | 0.351 (≈ 0.379 µM) | – | –
5 | CC[C@H]1OC(=O)[C@H](C)[C@@H](O[C@H]2C[C@@](C)(OC)[C@@H](O)[C@H](C)O2)[C@H](C)[C@@H](O[C@@H]2O[C@H](C)C[C@H](N(C)C)[C@H]2O)[C@](C)(O)C[C@@H](C)CN(CCCNC(=O)NS(=O)(=O)c2ccc(C)cc2)[C@H](C)[C@@H](O)[C@]1(C)O [Compound 20] | 1.06 (≈ 1.07 µM) | > 0.797 | – | – | – | > 1.76 | – | –
6 | CC[C@H]1OC(=O)[C@H](C)[C@@H](O)[C@H](C)[C@@H](O[C@@H]2O[C@H](C)C[C@H](N(C)C)[C@H]2O)[C@](C)(O)C[C@@H](C)CN(CCCNC(=S)NCc2ccccc2)[C@H](C)[C@@H](O)[C@]1(C)O [Compound 25] | 1.21 (≈ 1.54 µM) | > 0.797 | – | – | – | > 1.76 | – | –
7 | CC[C@H]1OC(=O)[C@H](C)[C@@H](O[C@H]2C[C@@](C)(OC)[C@@H](O)[C@H](C)O2)[C@H](C)[C@@H](O[C@@H]2O[C@H](C)C[C@H](N(C)C)[C@H]2O)[C@](C)(O)C[C@@H](C)CN(CCCN(CCC#N)C(=S)NCc2ccccc2)[C@H](C)[C@@H](O)[C@]1(C)O [Compound 12] | 0.163 (≈ 0.164 µM) | 0.233 (≈ 0.235 µM) | – | – | – | 0.2 (≈ 0.201 µM) | – | –
8 | CC[C@H]1OC(=O)[C@H](C)[C@@H](O[C@H]2C[C@@](C)(OC)[C@@H](O)[C@H](C)O2)[C@H](C)[C@@H](O[C@@H]2O[C@H](C)C[C@H](N(C)C)[C@H]2O)[C@](C)(O)C[C@@H](C)CN(CCCN(CCC#N)C(=O)NC(C)C)[C@H](C)[C@@H](O)[C@]1(C)O [Compound 19] | 1.19 (≈ 1.28 µM) | > 0.797 | – | – | – | > 1.76 | – | –
9 | CC[C@H]1OC(=O)[C@H](C)[C@@H](O[C@H]2C[C@@](C)(OC)[C@@H](O)[C@H](C)O2)[C@H](C)[C@@H](O[C@@H]2O[C@H](C)C[C@H](N(C)C)[C@H]2O)[C@](C)(O)C[C@@H](C)CN(CCCNC(=S)NCCc2ccccc2)[C@H](C)[C@@H](O)[C@]1(C)O [Compound 14] | 0.215 (≈ 0.225 µM) | 0.232 (≈ 0.242 µM) | – | – | – | 0.18 (≈ 0.188 µM) | – | –
10 | CC[C@H]1OC(=O)[C@H](C)[C@@H](O)[C@H](C)[C@@H](O[C@@H]2O[C@H](C)C[C@H](N(C)C)[C@H]2O)[C@](C)(O)C[C@@H](C)CN(CCCNC(=S)Nc2cccc3ccccc23)[C@H](C)[C@@H](O)[C@]1(C)O [Compound 29] | 0.297 (≈ 0.363 µM) | 0.954 (≈ 1.16 µM) | – | – | – | 0.172 (≈ 0.21 µM) | – | –
11 | midecamycinin | – | – | no efficacy | – | – | – | active | active
12 | CC[C@H]1OC(=O)[C@H](C)[C@@H](O[C@H]2C[C@@](C)(OC)[C@@H](O)[C@H](C)O2)[C@H](C)[C@@H](O[C@@H]2O[C@H](C)C[C@H](N(C)C)[C@H]2O)[C@](C)(O)C[C@@H](C)CN(CCCNC(=O)NS(=O)(=O)c2ccccc2C)[C@H](C)[C@@H](O)[C@]1(C)O [Compound 21] | > 1.62 | 0.427 (≈ 0.432 µM) | – | – | – | 1 (≈ 1.01 µM) | – | –
13 | CC[C@H]1OC(=O)[C@H](C)[C@@H](O[C@H]2C[C@@](C)(OC)[C@@H](O)[C@H](C)O2)[C@H](C)[C@@H](O[C@@H]2O[C@H](C)C[C@H](N(C)C)[C@H]2O)[C@](C)(O)C[C@@H](C)CN(CCCN(CCC#N)C(=O)NC(C)c2cccc3ccccc23)[C@H](C)[C@@H](O)[C@]1(C)O (stereo partly drawn) [Compound 10] | 0.16 (≈ 0.153 µM) | 0.254 (≈ 0.244 µM) | – | – | – | 0.308 (≈ 0.296 µM) | – | –
14 | CC[C@H]1OC(=O)[C@H](C)[C@@H](O[C@H]2C[C@@](C)(OC)[C@@H](O)[C@H](C)O2)[C@H](C)[C@@H](O[C@@H]2O[C@H](C)C[C@H](N(C)C)[C@H]2O)[C@](C)(O)C[C@@H](C)CN(CCCN(CCC#N)C(=O)Nc2ccc(Cl)cc2Cl)[C@H](C)[C@@H](O)[C@]1(C)O [Compound 11] | 0.161 (≈ 0.156 µM) | 0.276 (≈ 0.267 µM) | – | – | – | 0.217 (≈ 0.21 µM) | – | –
15 | CC[C@H]1OC(=O)[C@H](C)[C@@H](O[C@H]2C[C@@](C)(OC)[C@@H](O)[C@H](C)O2)[C@H](C)[C@@H](O[C@@H]2O[C@H](C)C[C@H](N(C)C)[C@H]2O)[C@](C)(O)C[C@@H](C)CN(CCCN(CCC#N)C(=O)Nc2cccc3ccccc23)[C@H](C)[C@@H](O)[C@]1(C)O [Compound 15] | 0.263 (≈ 0.259 µM) | 0.539 (≈ 0.531 µM) | – | – | – | 1.42 (≈ 1.4 µM) | – | –
16 | CC[C@H]1OC(=O)[C@H](C)[C@@H](O[C@H]2C[C@@](C)(OC)[C@@H](O)[C@H](C)O2)[C@H](C)[C@@H](O[C@@H]2O[C@H](C)C[C@H](N(C)C)[C@H]2O)[C@](C)(O)C[C@@H](C)CN(CCCNC(=S)NCc2ccccc2)[C@H](C)[C@@H](O)[C@]1(C)O [Compound 13] | 0.189 (≈ 0.2 µM) | 0.291 (≈ 0.309 µM) | – | – | – | 0.18 (≈ 0.191 µM) | – | –
